Results: ChEMBL document CHEMBL4020788, “Synthesis, SAR and molecular docking studies of benzo[d]thiazole-hydrazones as potential antibacterial and antifungal agents” (2017)
Converted amounts (≈) assume the structure as drawn. The source made the active and inactive calls. The calls are words filed in the database; no cut-off is given here.

Assays:
Assay type in all cases: functional
Staphylococcus aureus [1] = test: Antibacterial activity against Staphylococcus aureus at 25 ug/ml after 24 hrs by agar well diffusion method; conditions: read-out: DIZ
Staphylococcus aureus [2] = test: Antibacterial activity against Staphylococcus aureus at 50 ug/ml after 24 hrs by agar well diffusion method; conditions: read-out: DIZ
Staphylococcus aureus [3] = test: Antibacterial activity against Staphylococcus aureus at 75 ug/ml after 24 hrs by agar well diffusion method; conditions: read-out: DIZ
Staphylococcus aureus [4] = test: Antibacterial activity against Staphylococcus aureus at 100 ug/ml after 24 hrs by agar well diffusion method; conditions: read-out: DIZ
Bacillus subtilis [5] = test: Antibacterial activity against Bacillus subtilis at 25 ug/ml after 24 hrs by agar well diffusion method; conditions: read-out: DIZ
Bacillus subtilis [6] = test: Antibacterial activity against Bacillus subtilis at 50 ug/ml after 24 hrs by agar well diffusion method; conditions: read-out: DIZ
Bacillus subtilis [7] = test: Antibacterial activity against Bacillus subtilis at 75 ug/ml after 24 hrs by agar well diffusion method; conditions: read-out: DIZ
Bacillus subtilis [8] = test: Antibacterial activity against Bacillus subtilis at 100 ug/ml after 24 hrs by agar well diffusion method; conditions: read-out: DIZ
Escherichia coli [9] = test: Antibacterial activity against Escherichia coli at 25 ug/ml after 24 hrs by agar well diffusion method; conditions: read-out: DIZ
Escherichia coli [10] = test: Antibacterial activity against Escherichia coli at 50 ug/ml after 24 hrs by agar well diffusion method; conditions: read-out: DIZ
Escherichia coli [11] = test: Antibacterial activity against Escherichia coli at 75 ug/ml after 24 hrs by agar well diffusion method; conditions: read-out: DIZ
Escherichia coli [12] = test: Antibacterial activity against Escherichia coli at 100 ug/ml after 24 hrs by agar well diffusion method; conditions: read-out: DIZ
Klebsiella pneumoniae [13] = test: Antibacterial activity against Klebsiella pneumoniae at 25 ug/ml after 24 hrs by agar well diffusion method; conditions: read-out: DIZ
Klebsiella pneumoniae [14] = test: Antibacterial activity against Klebsiella pneumoniae at 50 ug/ml after 24 hrs by agar well diffusion method; conditions: read-out: DIZ
Klebsiella pneumoniae [15] = test: Antibacterial activity against Klebsiella pneumoniae at 75 ug/ml after 24 hrs by agar well diffusion method; conditions: read-out: DIZ
Klebsiella pneumoniae [16] = test: Antibacterial activity against Klebsiella pneumoniae at 100 ug/ml after 24 hrs by agar well diffusion method; conditions: read-out: DIZ
Staphylococcus aureus [17] = test: Antibacterial activity against methicillin resistant Staphylococcus aureus MRSA090 at 25 ug/ml after 24 hrs by agar well diffusion method; conditions: MRSA090, 24 h, read-out: DIZ
Staphylococcus aureus [18] = test: Antibacterial activity against methicillin resistant Staphylococcus aureus MRSA090 at 50 ug/ml after 24 hrs by agar well diffusion method; conditions: MRSA090, 24 h, read-out: DIZ
Staphylococcus aureus [19] = test: Antibacterial activity against methicillin resistant Staphylococcus aureus MRSA090 at 75 ug/ml after 24 hrs by agar well diffusion method; conditions: MRSA090, 24 h, read-out: DIZ
Staphylococcus aureus [20] = test: Antibacterial activity against methicillin resistant Staphylococcus aureus MRSA090 at 100 ug/ml after 24 hrs by agar well diffusion method; conditions: MRSA090, 24 h, read-out: DIZ
Aspergillus niger [21] = test: Antifungal activity against Aspergillus niger at 25 ug/ml after 48 hrs by agar well diffusion method
Aspergillus niger [22] = test: Antifungal activity against Aspergillus niger at 50 ug/ml after 48 hrs by agar well diffusion method
Aspergillus niger [23] = test: Antifungal activity against Aspergillus niger at 75 ug/ml after 48 hrs by agar well diffusion method
Aspergillus niger [24] = test: Antifungal activity against Aspergillus niger at 100 ug/ml after 48 hrs by agar well diffusion method
Fusarium verticillioides [25] = test: Antifungal activity against Fusarium moniliforme at 25 ug/ml after 48 hrs by agar well diffusion method
Fusarium verticillioides [26] = test: Antifungal activity against Fusarium moniliforme at 50 ug/ml after 48 hrs by agar well diffusion method
Fusarium verticillioides [27] = test: Antifungal activity against Fusarium moniliforme at 75 ug/ml after 48 hrs by agar well diffusion method
Fusarium verticillioides [28] = test: Antifungal activity against Fusarium moniliforme at 100 ug/ml after 48 hrs by agar well diffusion method
Fusarium oxysporum [29] = test: Antifungal activity against Fusarium oxysporum at 25 ug/ml after 48 hrs by agar well diffusion method
Fusarium oxysporum [30] = test: Antifungal activity against Fusarium oxysporum at 50 ug/ml after 48 hrs by agar well diffusion method
Fusarium oxysporum [31] = test: Antifungal activity against Fusarium oxysporum at 75 ug/ml after 48 hrs by agar well diffusion method
Fusarium oxysporum [32] = test: Antifungal activity against Fusarium oxysporum at 100 ug/ml after 48 hrs by agar well diffusion method
Staphylococcus aureus [33] = test: Antibacterial activity against Staphylococcus aureus incubated for overnight by microdilution method
Bacillus subtilis [34] = test: Antibacterial activity against Bacillus subtilis incubated for overnight by microdilution method
Escherichia coli [35] = test: Antibacterial activity against Escherichia coli incubated for overnight by microdilution method
Staphylococcus aureus [36] = test: Antibacterial activity against methicillin resistant Staphylococcus aureus MRSA090 incubated for overnight by microdilution method

| SMILES | zone of inhibition at 25 µg/mL (Staphylococcus aureus [1]) | zone of inhibition at 50 µg/mL (Staphylococcus aureus [2]) | zone of inhibition at 75 µg/mL (Staphylococcus aureus [3]) | zone of inhibition at 100 µg/mL (Staphylococcus aureus [4]) | zone of inhibition at 25 µg/mL (Bacillus subtilis [5]) | zone of inhibition at 50 µg/mL (Bacillus subtilis [6]) | zone of inhibition at 75 µg/mL (Bacillus subtilis [7]) | zone of inhibition at 100 µg/mL (Bacillus subtilis [8]) | zone of inhibition at 25 µg/mL (Escherichia coli [9]) | zone of inhibition at 50 µg/mL (Escherichia coli [10]) | zone of inhibition at 75 µg/mL (Escherichia coli [11]) | zone of inhibition at 100 µg/mL (Escherichia coli [12]) | zone of inhibition at 25 µg/mL (Klebsiella pneumoniae [13]) | zone of inhibition at 50 µg/mL (Klebsiella pneumoniae [14]) | zone of inhibition at 75 µg/mL (Klebsiella pneumoniae [15]) | zone of inhibition at 100 µg/mL (Klebsiella pneumoniae [16]) | zone of inhibition at 25 µg/mL (Staphylococcus aureus [17]) | zone of inhibition at 50 µg/mL (Staphylococcus aureus [18]) | zone of inhibition at 75 µg/mL (Staphylococcus aureus [19]) | zone of inhibition at 100 µg/mL (Staphylococcus aureus [20]) | other results |
| --- | --- | --- | --- | --- | --- | --- | --- | --- | --- | --- | --- | --- | --- | --- | --- | --- | --- | --- | --- | --- | --- |
| COc1ccc(/C=N/Nc2nc3cccc(C)c3s2)cc1 | 12 mm | 14 mm | 19 mm | 24 mm | 13 mm | 18 mm | 20 mm | 26 mm | 10 mm | 12 mm | 15 mm | 10 mm | 14 mm | 16 mm | 20 mm | 22 mm | 10 mm | 13 mm | 16 mm | 21 mm | zone of inhibition at 25 µg/mL (Aspergillus niger [21]; read-out: DIZ): 8 mm; zone of inhibition at 50 µg/mL (Aspergillus niger [22]; read-out: DIZ): 11 mm; zone of inhibition at 75 µg/mL (Aspergillus niger [23]; read-out: DIZ): 14 mm; zone of inhibition at 100 µg/mL (Aspergillus niger [24]; read-out: DIZ): 16 mm; diameter of the inhibition zone (DIZ) (Fusarium verticillioides [25]): inactive; diameter of the inhibition zone (DIZ) (Fusarium verticillioides [26]): inactive; diameter of the inhibition zone (DIZ) (Fusarium verticillioides [27]): inactive; diameter of the inhibition zone (DIZ) (Fusarium verticillioides [28]): inactive; diameter of the inhibition zone (DIZ) (Fusarium oxysporum [29]): inactive; diameter of the inhibition zone (DIZ) (Fusarium oxysporum [30]): inactive; diameter of the inhibition zone (DIZ) (Fusarium oxysporum [31]): inactive; diameter of the inhibition zone (DIZ) (Fusarium oxysporum [32]): inactive; MIC (Staphylococcus aureus [33]): 30 µg/mL (≈ 101 µM); MIC (Bacillus subtilis [34]): 28 µg/mL (≈ 94.2 µM); MIC (Escherichia coli [35]): 27 µg/mL (≈ 90.8 µM); MIC (Staphylococcus aureus [36]): 32 µg/mL (≈ 108 µM) |
| Cc1cccc2nc(N/N=C/c3ccc(O)cc3)sc12 | 10 mm | 16 mm | 20 mm | 23 mm | 11 mm | 14 mm | 18 mm | 21 mm | 17 mm | 19 mm | 22 mm | 25 mm | 14 mm | 17 mm | 22 mm | 26 mm | 14 mm | 17 mm | 21 mm | 24 mm | diameter of the inhibition zone (DIZ) (Aspergillus niger [21]): inactive; diameter of the inhibition zone (DIZ) (Aspergillus niger [22]): inactive; diameter of the inhibition zone (DIZ) (Aspergillus niger [23]): inactive; diameter of the inhibition zone (DIZ) (Aspergillus niger [24]): inactive; zone of inhibition at 25 µg/mL (Fusarium verticillioides [25]; read-out: DIZ): 8 mm; zone of inhibition at 50 µg/mL (Fusarium verticillioides [26]; read-out: DIZ): 10 mm; zone of inhibition at 75 µg/mL (Fusarium verticillioides [27]; read-out: DIZ): 13 mm; zone of inhibition at 100 µg/mL (Fusarium verticillioides [28]; read-out: DIZ): 17 mm; diameter of the inhibition zone (DIZ) (Fusarium oxysporum [29]): inactive; diameter of the inhibition zone (DIZ) (Fusarium oxysporum [30]): inactive; diameter of the inhibition zone (DIZ) (Fusarium oxysporum [31]): inactive; diameter of the inhibition zone (DIZ) (Fusarium oxysporum [32]): inactive; MIC (Staphylococcus aureus [33]): 28 µg/mL (≈ 98.8 µM); MIC (Bacillus subtilis [34]): 26 µg/mL (≈ 91.8 µM); MIC (Escherichia coli [35]): 25 µg/mL (≈ 88.2 µM); MIC (Staphylococcus aureus [36]): 30 µg/mL (≈ 106 µM) |
